Tests used:
[1] = tested on: bronchospasms elicited by 5-hydroxytryptamine; test: bronchodilator activity, Konzett procedure, 5-hydroxytryptamine bronchospasm; assay type: in vivo, guinea pigs; settings: Cavia porcellus; three logarithmic cumulative intravenous doses; spasmogen 5-hydroxytryptamine
Protocol: (§1) The compounds of this invention are useful as bronchodilators for the treatment of asthma and chronic bronchitis. Bronchodilator activity is determined in guinea pigs against bronchospasms elicited by intravenous injections of 5-hydroxytryptamine, histamine or acetylcholine by the Konzett procedure. [See J. Lulling, P. Lievens, F. El Sayed and J. Prignot, Arzneimittel-Forschung, 18, 955 (1968).]
(§2) In Table A which follows bronchodilator activity for representative compounds of this invention against one or more of three spasmogenic agents is expressed as an ED50 determined from the results obtained with three logarithmic cumulative intravenous doses.

[2] = tested on: bronchospasms elicited by histamine; test: bronchodilator activity, Konzett procedure, histamine bronchospasm; assay type: in vivo, guinea pigs; settings: Cavia porcellus; three logarithmic cumulative intravenous doses; spasmogen histamine
Protocol: as §1, §2

[3] = tested on: bronchospasms elicited by acetylcholine; test: bronchodilator activity, Konzett procedure, acetylcholine bronchospasm; assay type: in vivo, guinea pigs; settings: Cavia porcellus; three logarithmic cumulative intravenous doses; spasmogen acetylcholine
Protocol: as §1, §2

[4] = tested on: basal gastric acid secretion; test: inhibition of gastric acid secretion in the acute gastric fistula rat; assay type: in vivo, Female Sprague-Dawley rats; settings: 10 mg./kg., intraduodenal
Protocol: The compounds of this invention are also useful as inhibitors of gastric acid secretion and peptic ulcer formation and may be used for the treatment of gastric hyperacidity, gastric erosion, and peptic ulcer. Inhibition of basal gastric acid secretion can be determined by the following procedure.
Female Sprague-Dawley rats weighing 140-160 grams are fasted in individual cages for 18-24 hours. The rats are then lightly anesthetized with ether and their front teeth extracted to avoid destruction of the plastic cannula. A midline incision is then made and the stomach and duodenum exposed. A flanged polyvinyl tube is inserted into the fundic portion of the stomach and secured with a purse string suture line using 4-0 Mersilene. The rat is then dosed by injection of the compound into the duodenum (1.0 ml. per 100 gram body weight). After dosing, the abdominal wall and skin are closed using metal wound clips. The rat is replaced in a cage containing a longitudinal slit to allow the polyvinyl tube to hang freely. An 8 ml. plastic collecting tube is attached to the flanged cannula and hangs freely below the cage. The first 30 minute sample is discarded designating this time as zero. The collecting tube is attached again and samples removed at the end of 60 and 120 minutes. The hourly samples are then transferred to a 15 ml. centrifuge and centrifuged for 5-10 minutes. Total and sediment volume are then recorded with supernatant volume being used as volume of secretion. A 1 ml. or less aliquot is then removed and placed in a 50 ml. beaker containing 10 ml. of distilled water. This sample is then titrated using 0.01N NaOH to pH 7.0 using a Beckman zeromatic pH meter. Volume, tritratable acidity (meq/L) and total acid output (ueg/hour) are recorded. Percent inhibition is determined by comparison with the appropriate control. Groups of three rats were used for preliminary testing, and groups of six rates were used for dose-response evaluations. All compounds are administered in a vehicle consisting of 0.5% methocel, 0.4% tween 80, and saline at a constant volume of 1 ml./100 gram rat. Samples are dispersed by sonification. Percent inhibition is calculated on basis of concurrent vehicle control.
In Table B which follows is given the effect on total acid output after 60 minutes (response A) and 120 minutes (response B) for various doses of representative compounds of this invention.

[5] = tested on: basal gastric acid secretion; test: as above; assay type: in vivo, Female Sprague-Dawley rats; settings: oral
[6] = tested on: gastric acid output stimulated by gastrin tetrapeptide; test: gastric fistula dog, gastric acid output stimulated by gastrin tetrapeptide; assay type: in vivo; settings: oral, 0.16 mg./kg., % of the control output
Protocol: (§3) With the former agent a dose of 0.16 mg./kg. is sufficient to inhibit more than 50% of the control output.

[7] = tested on: gastric acid output stimulated by histamine; test: gastric fistula dog, gastric acid output stimulated by histamine; assay type: in vivo; settings: oral
Protocol: as §3

smooth muscle = settings: cited from earlier work
[8] = tested on: systemic arterial blood pressure; settings: in vivo; cited from earlier work
[9] = tested on: mobilization of free fatty acids; settings: cited from earlier work
[10] = cited from earlier work

Row | Structure (SMILES) | ED50 [1] [mg/kg] | ED50 [2] [mg/kg] | ED50 [3] [mg/kg] | %-Inhibition of Total Acid Output ([4]; after 60 min.) [%] | %-Inhibition of Total Acid Output ([4]; after 120 min.) [%] | %-Inhibition of Total Acid Output ([5]; 10 mg./kg., after 60 min.) [%] | %-Inhibition of Total Acid Output ([5]; 10 mg./kg., after 120 min.) [%] | other results
1 | CCCCC1([C@@H](O)/C=C/[C@H]2CCC(=O)[C@@H]2CCCCCCC(=O)O)CCC1 (relative stereo) [9-oxo-15-epi-hydroxy-16,16-trimethylene-13-trans-prostenoic acid] | 0.135 | 0.014 | 0.003 | 98 | 92 | 85 | 61 | –
2 | CCCCC1([C@H](O)/C=C/[C@H]2CCC(=O)[C@@H]2CCCCCCC(=O)O)CCC1 (relative stereo) [9-oxo-15-hydroxy-16,16-trimethylene-13-trans-prostenoic acid] | 0.02 | 0.0024 | 0.048 | 98 | 75 | – | – | %-Inhibition of Total Acid Output ([5]; 2.5 mg./kg., after 60 min.): 86%; %-Inhibition of Total Acid Output ([5]; 2.5 mg./kg., after 120 min.): 83%
3 | CCCCC1([C@H](O)/C=C/[C@H]2[C@H](O)CC(=O)[C@@H]2C/C=C\CCCC(=O)O)CCC1 (relative stereo) [11α,15-dihydroxy-9-oxo-16,16-trimethylene-5-cis,13-trans-prostadienoic acid] | 0.0025 | 0.0015 | 0.0011 | 100 | 100 | 100 | 100 | inhibition of gastric acid output stimulated by gastrin tetrapeptide [6]: more than 50%; inhibition of the stimulation of gastric acid output by histamine [7]: will inhibit the stimulation of gastric acid output; %-Inhibition of Total Acid Output ([5]; 0.63 mg./kg., after 60 min.): 30%; %-Inhibition of Total Acid Output ([5]; 0.63 mg./kg., after 120 min.): 35%; %-Inhibition of Total Acid Output ([5]; 1.25 mg./kg., after 60 min.): 40%; %-Inhibition of Total Acid Output ([5]; 1.25 mg./kg., after 120 min.): 36%; %-Inhibition of Total Acid Output ([5]; 2.5 mg./kg., after 60 min.): 87%; %-Inhibition of Total Acid Output ([5]; 2.5 mg./kg., after 120 min.): 74%
4 | CCCCC1([C@@H](O)/C=C/[C@H]2[C@H](O)CC(=O)[C@@H]2C/C=C\CCCC(=O)O)CCC1 (relative stereo) [11α,15-epi-dihydroxy-9-oxo-16,16-trimethylene-5-cis,13-trans-prostadienoic acid] | 0.305 | 0.048 | 0.032 | 98 | 86 | 32 | 39 | –
5 | CCCCC1([C@@H](O)/C=C/[C@H]2CCC(=O)[C@@H]2CCCCCCC(=O)OCC)CCC1 (relative stereo) [ethyl 15-epi-hydroxy-9-oxo-16,16-trimethylene-13-trans-prostenoate] | – | – | – | 98 | 87 | 77 | 67 | –
6 | CCCCC1([C@H](O)/C=C/[C@H]2CCC(=O)[C@@H]2CCCCCCC(=O)OCC)CCC1 (relative stereo) [ethyl 15-hydroxy-9-oxo-16,16-trimethylene-13-trans-prostenoate] | – | – | – | 100 | 100 | 48 | 38 | –
7 | CCCCC[C@H](O)/C=C/[C@H]1[C@H](O)CC(=O)[C@@H]1CCCCCCC(=O)O [PGE1] | – | – | – | – | – | – | – | potency in causing smooth muscle stimulation (smooth muscle): extremely potent; potency in causing vasodepression [8]: extremely potent; potency as antilipolytic agent [9]: potent
8 | CCCCC[C@H](O)/C=C/[C@H]1[C@H](O)CC(=O)[C@@H]1C/C=C\CCCC(=O)O [prostaglandin E2] | – | – | – | – | – | – | – | time within which the solution must be used ([10]; room temperature): one day; time within which saline solution should preferably be used ([10]; saline solution stored at 40° C. (so in the source), preferably): 2 to 3 days; time within which saline solution should be used ([10]; saline solution stored at 40° C. (so in the source)): a week; decrease in biological activity on storage ([10]; ten days storage at 4° C., concentration 100 mg./ml.): significant decrease; potency in causing smooth muscle stimulation (smooth muscle): extremely potent; potency in causing vasodepression [8]: extremely potent; potency as antilipolytic agent [9]: potent
